Assays:
[1] = target: phospho-FLT3 (Y589/Y591) (Homo sapiens (Human), UniProt P36888, INS600HVDFREYEYD); assay: Inhibition of kinase phosphorylation by Western Blot in MV-4-11; type: cell-based; conditions: MV-4-11 cells, 4 hour-incubation; read-out: pFLT3 MV-4-11 IC50
[2] = test system: 786-O; assay: Cell proliferation panel (CellTiter-Glo 2.0, 5 days); type: cell-based; conditions: Renal cell adenocarcinoma
Method: (§1) Cell proliferation assay was carried out in a panel of 108 cell lines. 1000 (attached cells) or 3000 (suspension cells) cells/100 μl per well were seeded in 96 well black plate with a clear bottom (Corning #3904). Compounds were added using Tecan D300e Digital Dispenser in 1:3 titration for 9 doses. Plates were incubated for 5 days at 37° C. and 5% CO2. Cell proliferation was measured using CellTiter-Glo 2.0 luciferase-based ATP detection assay (Promega, Madison, WI) at 50 μl per well following the manufacturer's protocol. Plates were then read on a TECAN Sparks multimode microplate reader. Data was analyzed using GraphPad Prism 9 (GraphPad Software, San Diego, CA) to obtain IC50 values. IC50 values were determined using Prism software (GraphPad Software, San Diego, CA).

[3] = test system: HNT-34; assay: as above; type: cell-based; conditions: Acute myeloid leukemia
Method: as §1

[4] = test system: MV-4-11; assay: as above; type: cell-based; conditions: Biphenotypic B-Myelomonocytic Leukemia
Method: as §1

[5] = test system: TF-1; assay: as above; type: cell-based; conditions: Erythroleukemia
Method: as §1

[6] = test system: H69; assay: as above; type: cell-based; conditions: Lung small cell carcinoma
Method: as §1

[7] = test system: Ovcar3; assay: as above; type: cell-based; conditions: Ovarian adenocarcinoma
Method: as §1

[8] = test system: UCSD-AML1; assay: as above; type: cell-based; conditions: Acute myeloid leukemia
Method: as §1

[9] = test system: JeKo-1; assay: as above; type: cell-based; conditions: Mantle cell lymphoma
Method: as §1

[10] = test system: MIAPaCa-2; assay: as above; type: cell-based; conditions: Pancreatic carcinoma
Method: as §1

[11] = test system: N87; assay: as above; type: cell-based; conditions: Gastric carcinoma
Method: as §1

[12] = test system: MOLM-1; assay: as above; type: cell-based; conditions: Chronic myeloid leukemia
Method: as §1

[13] = test system: 769-P; assay: as above; type: cell-based; conditions: Renal cell adenocarcinoma
Method: as §1

[14] = test system: ASPC1; assay: as above; type: cell-based; conditions: Pancreatic adenocarcinoma
Method: as §1

[15] = test system: JPC3; assay: as above; type: cell-based; conditions: Lung carcinoma
Method: as §1

[16] = test system: U118-MG; assay: as above; type: cell-based; conditions: Brain glioblastoma
Method: as §1

[17] = test system: PANC0203; assay: as above; type: cell-based; conditions: Pancreatic adenocarcinoma
Method: as §1

[18] = test system: SK-LU-1; assay: as above; type: cell-based; conditions: Lung adenocarcinoma NSCLC
Method: as §1

[19] = test system: PANC0403; assay: as above; type: cell-based; conditions: Pancreatic adenocarcinoma
Method: as §1

[20] = test system: DLD1; assay: as above; type: cell-based; conditions: Colorectal adenocarcinoma
Method: as §1

[21] = test system: H2444; assay: as above; type: cell-based; conditions: Lung adenocarcinoma NSCLC
Method: as §1

[22] = test system: H1573; assay: as above; type: cell-based; conditions: Lung adenocarcinoma NSCLC
Method: as §1

[23] = test system: CHP-212; assay: as above; type: cell-based; conditions: Neuroblastoma
Method: as §1

[24] = test system: 22RV1; assay: as above; type: cell-based; conditions: Prostate carcinoma
Method: as §1

[25] = test system: H2291; assay: as above; type: cell-based; conditions: Lung adenocarcinoma NSCLC
Method: as §1

[26] = test system: A-498; assay: as above; type: cell-based; conditions: Kidney carcinoma
Method: as §1

[27] = test system: MOLM13; assay: as above; type: cell-based; conditions: Acute myeloid leukemia
Method: as §1

[28] = test system: SW480; assay: as above; type: cell-based; conditions: Colorectal adenocarcinoma
Method: as §1

[29] = test system: H1688; assay: as above; type: cell-based; conditions: Small cell lung carcinoma
Method: as §1

[30] = test system: PANC1; assay: as above; type: cell-based; conditions: Pancreatic ductal epithelioid carcinoma
Method: as §1

[31] = test system: GP2D; assay: as above; type: cell-based; conditions: Colon adenocarcinoma
Method: as §1

[32] = test system: MOLM-13 tumor; assay: Cell-derived xenograft (CDX) tumor model; type: in vivo; conditions: MOLM-13 CDX, mice, 13 days
Method: (§2) Tumor cells were cultured using standard techniques described above and were harvested and pelleted by centrifugation at 1000 rpm for 5 minutes. The pelleted cells were washed once with serum-free medium followed by subsequent re-suspension in the serum-free medium supplemented with 50% matrigel (Corning, Inc). Five million tumor cells were implanted subcutaneously to the right flank of each mouse, followed by tumor volume and body weight measurement once or twice per week with an electronic caliper (Fowler) and a balance, respectively. When the average tumor size reached a pre-determined volume, the mice were grouped and treated with Ex. 6. One group of mice were treated with vehicle as control. During treatment, mice were monitored daily by cage side observation. The tumor volume (TV) and body weight was measured twice or three times per week during the treatment. Study ended either after 4-5 weeks of treatment or tumor volume of any mice reached 1000 or 2000 mm^3. Tumor growth inhibition (TGI) was be calculated as follows: […]

[33] = test system: MV-4-11 tumor; assay: Cell-derived xenograft (CDX) tumor model; type: in vivo; conditions: MV-4-11 CDX, mice, 20 days
Method: as §2

[34] = test system: SW480 tumor; assay: Cell-derived xenograft (CDX) tumor model; type: in vivo; conditions: mice, oral 25 mg/kg QD, 28 days
Method: as §2

[35] = test system: SW403 tumor; assay: Cell-derived xenograft (CDX) tumor model; type: in vivo; conditions: mice, oral 25 mg/kg QD, 20 days
Method: as §2

[36] = target: FLT3-ITD (Homo sapiens, UniProt P36888); assay: HotSpot radiometric kinase assay (Reaction Biology); type: biochemical
Sequence of FLT3-ITD (P36888 whole entry, looked up, change not shown): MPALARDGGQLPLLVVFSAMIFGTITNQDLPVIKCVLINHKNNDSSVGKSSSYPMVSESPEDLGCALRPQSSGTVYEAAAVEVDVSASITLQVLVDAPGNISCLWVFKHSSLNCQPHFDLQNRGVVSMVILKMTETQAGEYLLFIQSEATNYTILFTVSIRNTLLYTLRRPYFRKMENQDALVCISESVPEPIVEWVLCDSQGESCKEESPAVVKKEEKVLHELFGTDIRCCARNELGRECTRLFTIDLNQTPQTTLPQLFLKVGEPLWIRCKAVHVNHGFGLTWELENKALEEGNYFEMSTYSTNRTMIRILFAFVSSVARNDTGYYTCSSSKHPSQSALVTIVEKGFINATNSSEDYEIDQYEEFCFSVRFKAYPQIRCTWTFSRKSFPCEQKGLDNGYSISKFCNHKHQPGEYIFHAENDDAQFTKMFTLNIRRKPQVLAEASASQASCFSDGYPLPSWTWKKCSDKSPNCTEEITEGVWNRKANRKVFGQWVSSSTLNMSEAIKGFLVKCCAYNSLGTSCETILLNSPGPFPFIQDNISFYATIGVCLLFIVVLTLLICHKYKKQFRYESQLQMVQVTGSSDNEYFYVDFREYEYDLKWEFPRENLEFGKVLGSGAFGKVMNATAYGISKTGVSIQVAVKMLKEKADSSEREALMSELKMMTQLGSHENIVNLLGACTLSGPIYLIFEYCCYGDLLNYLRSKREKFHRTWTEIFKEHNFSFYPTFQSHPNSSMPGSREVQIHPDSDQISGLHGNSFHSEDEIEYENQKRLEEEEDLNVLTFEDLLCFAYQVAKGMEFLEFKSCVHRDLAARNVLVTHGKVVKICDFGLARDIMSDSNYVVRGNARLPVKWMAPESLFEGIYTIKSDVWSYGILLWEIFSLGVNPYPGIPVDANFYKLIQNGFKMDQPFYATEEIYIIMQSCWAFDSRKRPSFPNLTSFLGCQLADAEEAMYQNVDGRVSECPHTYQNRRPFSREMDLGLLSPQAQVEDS

Sequence of phospho-FLT3 (Y589/Y591) (P36888 whole entry, looked up, stated change not applied): as the sequence (P36888 whole entry, looked up, change not shown) above

IC50 [1]: 0.16 nM
IC50 [2]: 138 nM
IC50 [4]: 0.68 nM
IC50 [7]: 70.7 nM
IC50 [10]: 53.2 nM
IC50 [12]: 80.5 nM
IC50 [14]: 241 nM
IC50 [17]: 126 nM
IC50 [18]: 166 nM
IC50 [19]: 220 nM
IC50 [20]: 48.7 nM
IC50 [21]: 117 nM
IC50 [22]: 80.6 nM
IC50 [24]: 73.2 nM
IC50 [25]: 362 nM
IC50 [27]: 2.39 nM
IC50 [28]: 90.5 nM
IC50 [29]: 116 nM
IC50 [30]: 213 nM
IC50 [36]: 0.348 nM
Structure (SMILES): CCc1nn(C)c2c1/C=C/c1n[nH]c3ccc(cc13)-c1cnn(C)c1OCCN(C)C2=O [Ex. 6, (17E)-16-ethyl-8,12,14-trimethyl-2,11,12,14-tetrahydro-8H-3,5-ethenotripyrazolo[3,4-f:3′,4′-j:4″,3″-n][1,4]oxazacyclopentadecin-13(10H)-one]
IC50 [3]: 22.3 nM
IC50 [5]: 57.6 nM
IC50 [6]: 100 nM
IC50 [8]: 15.5 nM
IC50 [9]: 20.6 nM
IC50 [11]: 20.8 nM
IC50 [13]: 91.6 nM
IC50 [15]: 171 nM
IC50 [16]: 310 nM
IC50 [23]: 27.4 nM
IC50 [26]: 169 nM
IC50 [31]: 121 nM
TGI % ([32]; oral 12.5 mg/kg QD): 74%
TGI % ([32]; oral 25 mg/kg QD): 94%
TGI % ([33]; oral 6.25 mg/kg QD): 98.8%
TGI % ([33]; oral 12.5 mg/kg QD): 189%
TGI % ([33]; oral 25 mg/kg QD, 5dOn-2dOff): 200%
TGI % ([33]; oral 25 mg/kg QD): 200%
TGI % [34]: 93%
TGI % [35]: 84%

Reference: patent US20260070924A1, “INDAZOLE MACROCYCLES AND THEIR USE” (BLOSSOMHILL THERAPEUTICS, INC., priority 2022, published 2026)
